Measured values reported in EP3498714B1 (priority 2017, dated 2019).

Experiments:
[1] = system: Escherichia coli DSM-1116; experiment: Microbroth dilution assay (MIC); format: cell-based; settings: 18-24 h
Protocol: (§1) Bacterial strains. All microorganisms were obtained from the German Collection of Microorganisms and Cell Cultures (Deutsche Sammlung für Mikroorganismen und Zellkulturen, DSMZ) and the American Type Culture Collection (ATCC) or were part of our internal strain collection.
(§2) Antimicrobial Testing. Sorangicin A (1) and Neosorangicin A (2) were tested in microbroth dilution assays on a panel of Gram-positive and Gram-negative bacteria. Overnight cultures were prepared from cryopreserved cultures and were diluted to achieve a final inoculum of 10^4-10^5 cfu/mL. Serial dilutions of compounds in DMSO were prepared in sterile 96-well plates in the test medium (cation-adjusted Müller-Hinton broth; supplemented with 2% (w/v) NaCl for S. aureus and 2.5% (v/v) lysed horse blood for Enterococcus and Streptococcus spp.) The cell suspension was added and microorganisms were grown for 18-24 h at either 30°C or 37°C. Streptococci and enterococci were grown under microaerophilic conditions. Growth inhibition was assessed by visual inspection and given MIC values are the lowest concentration of antibiotic at which there was no visible growth. Table 2. Antimicrobial activity; Minimum inhibitory concentrations (MIC, µg/mL) of neosorangicin A (2), sorangicin A (1), and a reference antibiotic (RIF; Rifampicin) on selected Gram-positive (I) and Gram-negative (II) species.

[2] = system: Pseudomonas aeruginosa DSM-1128; experiment: Microbroth dilution assay (MIC); format: cell-based; settings: 18-24 h
Protocol: as §1, §2

[3] = system: Acinetobacter baumannii DSM-30008; experiment: Microbroth dilution assay (MIC); format: cell-based; settings: 18-24 h
Protocol: as §1, §2

[4] = system: Staphylococcus aureus Newman; experiment: Microbroth dilution assay (MIC); format: cell-based; settings: 18-24 h, 2% NaCl
Protocol: as §1, §2

[5] = system: Streptococcus pneumoniae DSM-11865; experiment: Microbroth dilution assay (MIC); format: cell-based; settings: 18-24 h, 2.5% lysed horse blood, microaerophilic
Protocol: as §1, §2

[6] = system: Escherichia coli DSM-26863 (tolC3); experiment: Microbroth dilution assay (MIC); format: cell-based; settings: Escherichia coli DSM-26863 (tolC3); 18-24 h
Protocol: as §1, §2

[7] = system: Staphylococcus aureus ATCC29213; experiment: Microbroth dilution assay (MIC); format: cell-based; settings: 18-24 h, 2% NaCl
Protocol: as §1, §2

[8] = system: Enterococcus faecalis DSM-20478; experiment: Microbroth dilution assay (MIC); format: cell-based; settings: 18-24 h, 2.5% lysed horse blood, microaerophilic
Protocol: as §1, §2

[9] = system: Enterococcus faecium DSM-20477; experiment: Microbroth dilution assay (MIC); format: cell-based; settings: 18-24 h, 2.5% lysed horse blood, microaerophilic
Protocol: as §1, §2

[10] = system: Staphylococcus aureus Newman (Rif^R); experiment: Microbroth dilution assay (MIC); format: cell-based; settings: for Minimum inhibitory concentrations (MIC): Staphylococcus aureus Newman (Rif^R), 18-24 h, 2% NaCl; for activity on rifampicin-resistant (Rif^R) derivative of S. aureus Newman: result in words
Protocol: as §1, §2

[11] = system: Klebsiella pneumoniae DSM-30104; experiment: Microbroth dilution assay (MIC); format: cell-based; settings: 18-24 h
Protocol: as §1, §2

[12] = system: Staphylococcus aureus DSM-346; experiment: Microbroth dilution assay (MIC); format: cell-based; settings: 18-24 h, 2% NaCl
Protocol: as §1, §2

[13] = system: Escherichia coli (TolC-deficient); experiment: Microbroth dilution assay (MIC); format: cell-based; settings: Escherichia coli (TolC-deficient); 18-24 h
Protocol: as §1, §2

[14] = system: Escherichia coli DSM-1116 + 3 µg/ml PMBN; experiment: Microbroth dilution assay (MIC) with PMBN; format: cell-based; settings: 18-24 h
Protocol: as §1, §2
However, similar to 1, neosorangicin A (2) was not active on a rifampicin-resistant (Rif^R) derivative of S. aureus Newman, which confirms overlapping binding sites on RNA polymerase. […] In addition, the MIC values of 2 on efflux-deficient E. coli mutants (TolC as part of the AcrAB multidrug efflux system) were decreased.

[15] = system: intracellular S. aureus Newman; experiment: Intracellular efficacy in infected THP-1 macrophages; format: cell-based; settings: intracellular S. aureus Newman in PMA-differentiated THP-1 macrophages; MOI 10; 18 h treatment at 1x and 8x MIC
Protocol: (§3) Cells. Human acute monocytic leukemia THP-1 cells (ACC-16) were obtained from the German Collection of Microorganisms and Cell Cultures (DSMZ) and were maintained under conditions recommended by the depositor.
Determination of intracellular efficiency. For infection experiments, cells were seeded in 24-well plates in RPMI-1640 supplemented with 10% FBS and 150 nM phorbol 12-myristate 13-acetate (PMA) at a concentration of 10^5 cells/well. After 2 d, the cells were differentiated into macrophages and reached a cell density of ca. 2 x 10^5 cells/well. The medium was then removed and the cells were washed twice with PBS. An inoculum of ca. 2×10^6 CFU (colony-forming units) of S. aureus Newman in log phase (multiplicity of infection, MOI=10) was added to each well in RPMI/10% FBS and the plates were incubated at 37 °C and 5% CO2 in a water vapor-saturated atmosphere. The inoculum was checked by serial dilution and plating on CASO agar (1.5% peptone casein, 0.5% peptone soymeal, 0.5% NaCl, 1.5% agar, pH 7.3). After 2 h, the infected cells were washed three times with PBS (phosphate-buffered saline; pH 7.4) and incubated with fresh growth medium containing 10 µg/mL lysostaphin (≥500 U/mg) for 30 min in order to kill remaining extracellular bacteria. […] The plates were incubated overnight at 37 °C and colonies were counted. […]

S. aureus Newman = experiment: MIC in RPMI-1640 macrophage growth medium; format: cell-based; settings: RPMI-1640 macrophage growth medium supplemented with 0.5% (v/v) FBS
Protocol: Determination of intracellular efficiency. For infection experiments, cells were seeded in 24-well plates in RPMI-1640 supplemented with 10% FBS and 150 nM phorbol 12-myristate 13-acetate (PMA) at a concentration of 10^5 cells/well. After 2 d, the cells were differentiated into macrophages and reached a cell density of ca. 2 x 10^5 cells/well. The medium was then removed and the cells were washed twice with PBS. An inoculum of ca. 2×10^6 CFU (colony-forming units) of S. aureus Newman in log phase (multiplicity of infection, MOI=10) was added to each well in RPMI/10% FBS and the plates were incubated at 37 °C and 5% CO2 in a water vapor-saturated atmosphere. The inoculum was checked by serial dilution and plating on CASO agar (1.5% peptone casein, 0.5% peptone soymeal, 0.5% NaCl, 1.5% agar, pH 7.3). After 2 h, the infected cells were washed three times with PBS (phosphate-buffered saline; pH 7.4) and incubated with fresh growth medium containing 10 µg/mL lysostaphin (≥500 U/mg) for 30 min in order to kill remaining extracellular bacteria. The initial load (Control t0) was checked by recovery of intracellular bacteria and plating on CASO agar. After three times washing with PBS the test compounds were added in RPMI-1640/0.5% FBS at the given concentrations for 18 h. After repeated washing with PBS the intracellular bacteria were recovered by adding ice-cooled water for 10 min and the bacterial suspensions were further diluted in 0.9% (w/v) NaCl prior to plating on CASO agar. The plates were incubated overnight at 37 °C and colonies were counted. The MIC values on S. aureus Newman in RPMI-1640 macrophage growth medium supplemented with 0.5% (v/v) fetal bovine serum (FBS) for neosorangicin A (2), sorangicin A (1) and the reference antibiotic rifampicin (RIF) were 0.01, 0.13 and 0.01 µg/mL, respectively. Human THP-1 macrophages were infected with S. aureus at an MOI (multiplicity of infection) of 10. After killing of extracellular bacteria, the cells were treated for 18 h with the antibiotics at their respective 1x and 8x MIC. […]

S. aureus RNA polymerase = target: T1, S. aureus RNA polymerase (Staphylococcus aureus, UniProt P47768); experiment: RNA polymerase inhibition assay (ProFoldin kit); format: biochemical; settings: purified S. aureus RNA polymerase 25 nM; 1 h at room temperature; IC50 ± SD, two independent experiments; read-out: IC50
T1 construct: purchased ProFoldin, MA
T1 sequence (P47768 whole entry): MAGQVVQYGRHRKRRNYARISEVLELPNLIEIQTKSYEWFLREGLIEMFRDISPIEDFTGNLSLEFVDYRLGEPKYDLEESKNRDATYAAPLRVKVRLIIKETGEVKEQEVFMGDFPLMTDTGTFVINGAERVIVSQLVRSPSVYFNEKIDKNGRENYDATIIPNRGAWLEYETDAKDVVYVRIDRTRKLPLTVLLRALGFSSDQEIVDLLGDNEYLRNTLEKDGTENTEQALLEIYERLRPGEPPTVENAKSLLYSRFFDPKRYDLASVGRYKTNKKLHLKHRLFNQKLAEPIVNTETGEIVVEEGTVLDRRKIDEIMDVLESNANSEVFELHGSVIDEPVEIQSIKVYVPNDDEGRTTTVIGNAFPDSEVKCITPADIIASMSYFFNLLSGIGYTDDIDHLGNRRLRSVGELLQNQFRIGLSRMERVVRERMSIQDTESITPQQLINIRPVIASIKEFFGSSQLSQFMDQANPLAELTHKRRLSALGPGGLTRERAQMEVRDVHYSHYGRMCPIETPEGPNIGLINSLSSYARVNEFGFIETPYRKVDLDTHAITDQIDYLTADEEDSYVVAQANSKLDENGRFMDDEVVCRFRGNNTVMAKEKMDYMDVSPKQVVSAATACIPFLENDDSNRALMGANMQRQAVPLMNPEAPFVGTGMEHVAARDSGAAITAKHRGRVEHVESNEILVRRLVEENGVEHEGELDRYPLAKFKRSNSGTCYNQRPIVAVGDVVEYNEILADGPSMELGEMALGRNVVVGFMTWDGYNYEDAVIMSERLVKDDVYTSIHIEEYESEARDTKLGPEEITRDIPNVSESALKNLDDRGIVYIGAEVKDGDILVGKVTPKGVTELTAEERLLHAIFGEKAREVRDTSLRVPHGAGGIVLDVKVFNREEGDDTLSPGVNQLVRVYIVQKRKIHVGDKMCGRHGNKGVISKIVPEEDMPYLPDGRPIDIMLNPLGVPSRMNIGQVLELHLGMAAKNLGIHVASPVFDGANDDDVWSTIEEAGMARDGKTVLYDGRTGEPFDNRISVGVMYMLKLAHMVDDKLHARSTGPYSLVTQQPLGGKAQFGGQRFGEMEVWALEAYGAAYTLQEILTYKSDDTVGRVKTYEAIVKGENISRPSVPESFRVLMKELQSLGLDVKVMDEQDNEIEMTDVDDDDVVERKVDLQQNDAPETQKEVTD
Protocol: The inhibition of S. aureus RNA polymerase by Sorangicin derivatives 1 and 2 was tested in vitro (bacterial RNA Polymerase Assay Kit; ProFoldin, MA). The samples were prepared and analyzed according to the manufacturer's protocol with slight modifications. In brief, serial dilutions (concentration range: 0.1 nM - 10 µM) of rifampicin, sorangicin A (1) and neosorangicin A (2) in black 384-well plates (low-volume, non-binding surface; Corning) were incubated for 1 h at room temperature with 25 nM RNA polymerase from S. aureus in assay buffer (42.5 mM HEPES, 42.5 mM NH4Cl, 2 mM DTT, 4 mM MgCl2, 0.005 % (v/v) Tween-20; pH 7.5) containing 0.5 mM NTPs and 1x DNA template. The reaction was monitored by incubation with a fluorescent probe for 5 min and measurement of the fluorescence intensity at 535 nm after excitation at 485 nm (Tecan Infinite M200PRO). Half-inhibitory concentrations (IC50) were determined in two independent experiments by sigmoidal curve fitting and given values are IC50 ± SD.

Human THP-1 macrophages = experiment: Toxicity towards THP-1 macrophages (microscopic control); format: cell-based; settings: 18 h treatment at 1x and 8x MIC
Protocol: • Figure 1. Chemical structures of sorangicin A (1) and of a compound according to the present invention - neosorangicin A - (2). • Figure 2. A) Reduction of intracellular S. aureus Newman (CFU: colony-forming unit) in PMA-differentiated THP-1 cells after 18 h treatment with rifampicin (RIF), neosorangicin A (2) and sorangicin A (1) at their respective 1x and 8x MIC. B) Microscopic control of THP-1 cells that were either treated with neosorangicn A (2) or 0.5% (v/v) DMSO as solvent control. • Figure 3. Comparison of sorangicin and neosorangicin biosynthetic pathways. Wavy bond symbolize phosphopantheteinyl arms. ACP domains are shown as small, unlabeled circles. Domains that are missing from one of the two pathways are shown as asterisks.
as §3
Determination of intracellular efficiency. For infection experiments, cells were seeded in 24-well plates in RPMI-1640 supplemented with 10% FBS and 150 nM phorbol 12-myristate 13-acetate (PMA) at a concentration of 10^5 cells/well. After 2 d, the cells were differentiated into macrophages and reached a cell density of ca. 2 x 10^5 cells/well. […] The plates were incubated overnight at 37 °C and colonies were counted. […]

Substance | Minimum inhibitory concentrations (MIC) [1] | Minimum inhibitory concentrations (MIC) [2] | Minimum inhibitory concentrations (MIC) [3] | Minimum inhibitory concentrations (MIC) [4] | Minimum inhibitory concentrations (MIC) [5] | Minimum inhibitory concentrations (MIC) [6] | Minimum inhibitory concentrations (MIC) [7] | Minimum inhibitory concentrations (MIC) [8] | Minimum inhibitory concentrations (MIC) [9] | Minimum inhibitory concentrations (MIC) [10] | activity on rifampicin-resistant (Rif^R) derivative of S. aureus Newman [10] | Minimum inhibitory concentrations (MIC) [11] | Minimum inhibitory concentrations (MIC) [12] | Minimum inhibitory concentrations (MIC) [13] | Minimum inhibitory concentrations (MIC) [14] | reduction of the bacterial load [15] | MIC values on S. aureus Newman (S. aureus Newman) | IC50 (S. aureus RNA polymerase) | toxicity towards the human macrophages (Human THP-1 macrophages)
neosorangicin A [compound 2] | 8 µg/mL | 8 µg/mL | 8 µg/mL | 0.01 µg/mL | 0.5 µg/mL | 2 µg/mL | 0.01 µg/mL | 0.5 µg/mL | 8 µg/mL | > 64 µg/mL | not active | 8 µg/mL | 0.25 µg/mL | 1 µg/mL | 0.25 µg/mL | 3 Log | 0.01 µg/mL | 60 ± 10 nM | without displaying any apparent toxicity
sorangicin A [compound 1] | 16 µg/mL | 32 µg/mL | 8 µg/mL | 0.1 µg/mL | 32 µg/mL | 8 µg/mL | 0.03 µg/mL | 2 µg/mL | 16 µg/mL | > 64 µg/mL | not active | 16 µg/mL | 1 µg/mL | 8 µg/mL | 0.25 µg/mL |  | 0.13 µg/mL | 210 ± 120 nM | 
